This note sets out measurements from ChEMBL document CHEMBL1201862, “PubChem BioAssay data set” (2004).

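Compound exposure: 48 hours, 5 concentrations, 96-well plates. GI50: concentration for 50% inhibition of growth.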 Calls of active or inactive are those of the source. Cut-off read from the data, not from the text of the source: active = GI50 up to about 1.1 µM and inactive = higher.

Some test systems named below: UACC-257; LOX IMVI; RXF 393; OVCAR-5; SK-MEL-2; TK-10; MOLT-4; SF-539; OVCAR-4; SNB-75; A549; T47D; HCT-15; U-251; SF-295; HOP-62; Malme-3M; NCI-H23; HL-60; OVCAR-8.
Holding throughout (test): NCI-60 cell line screen, 48 h

As to `CC(=O)OC1(C)CC(C)C(=O)C(C(O)CC2CC(=O)NC(=O)C2)C1` (stereo not given), the GI50 in the assay with UACC-257 is 0.0262 µM (active); with LOX IMVI, 0.013 µM (active); in the assay on RXF 393, 0.01 µM (active); in the assay on OVCAR-5 it was 0.0206 µM (active); in the assay on SK-MEL-2, 0.00752 µM (active); in the assay with TK-10 it was 0.0859 µM (active). The GI50 in the assay on MOLT-4 was 0.00444 µM (active); with SF-539, 0.0145 µM (active); in the assay with OVCAR-4 it was 0.0184 µM (active); in the assay on SNB-75, 0.504 µM (active); in the assay with A549, 0.00729 µM (active); in the assay on T47D, 0.0179 µM (active). Further, the GI50 in the assay on HCT-15 was 0.0348 µM; in the assay with U-251, 0.00697 µM (active); in the assay on SF-295, 0.0127 µM (active); in the assay on HOP-62, 0.0193 µM (active); with Malme-3M, 0.0186 µM (active); in the assay on NCI-H23 it was 0.00807 µM (active). Besides, the values for the GI50 in the assay with HL-60 and in the assay with OVCAR-8 were 0.00955 µM (active) and 0.0122 µM (active), respectively.

Take `COC1C(OC(=O)/C=C/C=C/C=C/C=C/C(=O)O)CCC2(CO2)C1C1(C)OC1CC=C(C)C` (stereo not given): the GI50 with UACC-257 was 34 µM (inactive); in the assay with LOX IMVI, 17.4 µM (inactive); with RXF 393, 48.8 µM (inactive); with OVCAR-5, > 78.2 µM (inactive); in the assay with SK-MEL-2 it was 5.01 µM (inactive); with TK-10, 57.9 µM (inactive). In addition, the GI50 in the assay with MOLT-4 is 25.4 µM (inactive); in the assay with SF-539, 42.3 µM (inactive); in the assay on OVCAR-4, 21.1 µM (inactive); with SNB-75, 25.3 µM (inactive); in the assay on A549 it was 18.5 µM (inactive); in the assay on T47D, 18.4 µM (inactive). Besides, the GI50 was 24.2 µM with HCT-15; 18.5 µM (inactive) in the assay on U-251; 17.3 µM (inactive) in the assay with SF-295; 62.1 µM (inactive) with HOP-62; 26.2 µM (inactive) with Malme-3M; 25 µM (inactive) with NCI-H23. Also, the GI50 was 16.4 µM (inactive) in the assay with HL-60 and 29.3 µM (inactive) with OVCAR-8.

Consider `COc1ccc(C(=O)Nc2ccc3oc(-c4ccccc4)nc3c2)cc1`, for which the GI50 with UACC-257, in the assay on LOX IMVI, with RXF 393, in the assay on OVCAR-5, in the assay on SK-MEL-2 and in the assay on TK-10 was > 100 µM (inactive) each time. Further, the GI50 in the assay on MOLT-4 is > 100 µM (inactive); in the assay on SF-539, 32.5 µM (inactive); with OVCAR-4, > 100 µM (inactive); with SNB-75, 29 µM (inactive); in the assay with A549 it was > 100 µM (inactive); in the assay on T47D, > 100 µM (inactive). Also, the GI50 in the assay with HCT-15 was over 100 µM; in the assay with U-251 it was 61.7 µM (inactive); in the assay on SF-295 it was > 100 µM (inactive); with HOP-62, 76.6 µM (inactive); in the assay on Malme-3M it was > 100 µM (inactive); with NCI-H23 it was > 100 µM (inactive). Besides, the GI50 with HL-60 is > 100 µM (inactive); in the assay with OVCAR-8 it was 22.3 µM (inactive).

In the case of `CCN1CN(c2ccccc2)C2(CCN(CC(CC3OCCO3)c3ccc(F)cc3)CC2)C1=O` (stereo not given), the GI50 was 2.79 µM (inactive) with UACC-257; 7.43 µM (inactive) with LOX IMVI; 16.2 µM (inactive) in the assay with RXF 393; 6.5 µM (inactive) in the assay with OVCAR-5; 20.1 µM (inactive) in the assay with SK-MEL-2; 7.53 µM (inactive) with TK-10. Besides, the GI50 in the assay on MOLT-4 was 4.99 µM (inactive); in the assay with SF-539, 9.53 µM (inactive); in the assay with OVCAR-4 it was 13.5 µM (inactive); in the assay on SNB-75, 35.2 µM (inactive); in the assay with A549 it was 5.24 µM (inactive); in the assay on T47D, 5.13 µM (inactive). Further, the GI50 was 16.3 µM in the assay on HCT-15; 14.9 µM (inactive) in the assay with U-251; 5.69 µM (inactive) in the assay on SF-295; 4.23 µM (inactive) in the assay with HOP-62; 19.7 µM (inactive) in the assay with Malme-3M; 12.5 µM (inactive) in the assay on NCI-H23. The figures for the GI50 with HL-60 and in the assay with OVCAR-8 were 17.7 µM (inactive) and 8.81 µM (inactive), respectively.
